Columns and labels:
Type in all cases: cell-based
CNR1 = molecular target: T1, CNR1 (Homo sapiens, UniProt P21554); experiment: cAMP Hunter eXpress CNR1 (CB1) CHO-K1 GPCR assay
T1 construct: host or cells: CHO-K1
Method: The experiments (agonist and antagonist mode) were carried out by DiscoveRx Corporation (Fremont, CA, USA). Human CNR1 in stably transfected CHO-K1 cells were seeded in a total volume of 20 μL into white-walled, 384-well microplates and incubated at 37 °C overnight. Before testing, cell plating media was exchanged with 10 μL of assay buffer (HBSS + 10 mM HEPES).
As described in catalog ref. (86-0007P-2277AG) for the agonist mode, intermediate dilution of sample stocks was performed to generate 4× samples in assay buffer. A total of 5 μL of 4× sample and 5 μL of 4× forskolin were added to cells and incubated at 37 °C for 30 min. The final assay vehicle concentration was 1%. The results are expressed as a percent efficacy relative to the maximum response of the control ligand.
As described in catalog ref. (86-0007P-2277AN) for the antagonist mode, intermediate dilution of sample stocks was performed to generate 4× samples in assay buffer. A total of 5 μL of 4X sample was added to cells and incubated at 37 °C for 30 min, and 5uL of 4× EC80 of CP55940 in 4× forskolin reagent was added and cells incubated for 37 °C for 30 min. The final assay vehicle concentration was 1%. The results are expressed as a percent inhibition of the control ligand. The assays were performed at 10-point concentrations of 4 using 3-fold serial dilutions in duplicate, where the highest concentration was 50 µM.

P2RY6 = molecular target: T2, P2RY6 (Homo sapiens, UniProt Q15077); experiment: PathHunter β-arrestin GpcrMAX assay
T2 construct: purchased DiscoveRx (Eurofins) gpcrMAX PathHunter β-arrestin panel
T2 sequence (Q15077 whole entry): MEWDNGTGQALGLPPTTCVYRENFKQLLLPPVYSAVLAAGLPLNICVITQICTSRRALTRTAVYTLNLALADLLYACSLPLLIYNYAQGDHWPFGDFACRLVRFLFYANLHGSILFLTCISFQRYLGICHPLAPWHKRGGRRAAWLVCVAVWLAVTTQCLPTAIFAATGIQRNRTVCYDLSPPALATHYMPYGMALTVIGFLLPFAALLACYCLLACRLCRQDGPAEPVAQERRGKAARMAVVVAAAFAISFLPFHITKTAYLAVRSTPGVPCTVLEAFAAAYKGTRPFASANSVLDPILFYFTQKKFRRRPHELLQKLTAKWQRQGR
Summary of the method: (§1)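 Agonist- and antagonist-mode screening of taveuniamide F (20 µM) using PathHunter β-arrestin EFC technology.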

HTR1B = molecular target: T3, HTR1B (Homo sapiens, UniProt P28222); experiment: PathHunter β-arrestin GpcrMAX assay
T3 construct: purchased DiscoveRx (Eurofins) gpcrMAX PathHunter β-arrestin panel
T3 sequence (P28222 whole entry): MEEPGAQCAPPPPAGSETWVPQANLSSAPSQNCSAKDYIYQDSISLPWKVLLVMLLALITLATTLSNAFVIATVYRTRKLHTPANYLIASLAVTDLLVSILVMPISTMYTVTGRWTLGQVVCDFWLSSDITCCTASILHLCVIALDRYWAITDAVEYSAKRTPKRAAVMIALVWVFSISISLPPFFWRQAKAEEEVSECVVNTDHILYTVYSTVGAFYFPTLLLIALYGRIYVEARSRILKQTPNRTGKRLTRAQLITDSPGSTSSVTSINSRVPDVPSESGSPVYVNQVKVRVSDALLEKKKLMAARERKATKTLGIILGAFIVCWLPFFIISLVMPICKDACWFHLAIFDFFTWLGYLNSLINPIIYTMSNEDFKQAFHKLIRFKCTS
Summary of the method: as §1

DRD1 = molecular target: T4, DRD1 (Homo sapiens, UniProt P21728); experiment: PathHunter β-arrestin GpcrMAX assay
T4 construct: purchased DiscoveRx (Eurofins) gpcrMAX PathHunter β-arrestin panel
Summary of the method: as §1

LHCGR = molecular target: T5, LHCGR (Homo sapiens, UniProt P22888); experiment: PathHunter β-arrestin GpcrMAX assay
T5 construct: purchased DiscoveRx (Eurofins) gpcrMAX PathHunter β-arrestin panel
Summary of the method: as §1

PTGER3 = molecular target: T6, PTGER3 (Homo sapiens, UniProt P43115); experiment: PathHunter β-arrestin GpcrMAX assay
T6 construct: purchased DiscoveRx (Eurofins) gpcrMAX PathHunter β-arrestin panel
T6 sequence (P43115 whole entry): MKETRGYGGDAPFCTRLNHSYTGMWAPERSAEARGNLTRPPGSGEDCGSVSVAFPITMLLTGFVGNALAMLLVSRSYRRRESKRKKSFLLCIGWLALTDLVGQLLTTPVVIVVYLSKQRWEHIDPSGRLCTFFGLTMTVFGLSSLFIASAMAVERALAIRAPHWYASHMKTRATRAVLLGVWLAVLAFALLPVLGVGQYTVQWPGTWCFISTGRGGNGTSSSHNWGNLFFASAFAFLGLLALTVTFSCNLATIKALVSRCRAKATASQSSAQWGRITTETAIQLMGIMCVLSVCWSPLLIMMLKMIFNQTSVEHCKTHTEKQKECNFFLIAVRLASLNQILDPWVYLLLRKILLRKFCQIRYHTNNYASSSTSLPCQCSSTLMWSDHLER
Summary of the method: as §1

ADORA3 = molecular target: T7, ADORA3 (Homo sapiens, UniProt P0DMS8); experiment: PathHunter β-arrestin GpcrMAX assay
T7 construct: purchased DiscoveRx (Eurofins) gpcrMAX PathHunter β-arrestin panel
Summary of the method: as §1

DRD5 = molecular target: T8, DRD5 (Homo sapiens, UniProt P21918); experiment: PathHunter β-arrestin GpcrMAX assay
T8 construct: purchased DiscoveRx (Eurofins) gpcrMAX PathHunter β-arrestin panel
Summary of the method: as §1

MCHR2 = molecular target: T9, MCHR2 (Homo sapiens, UniProt Q969V1); experiment: PathHunter β-arrestin GpcrMAX assay
T9 construct: purchased DiscoveRx (Eurofins) gpcrMAX PathHunter β-arrestin panel
Summary of the method: as §1

HRH3 = molecular target: T10, HRH3 (Homo sapiens, UniProt Q9Y5N1); experiment: PathHunter β-arrestin GpcrMAX assay
T10 construct: purchased DiscoveRx (Eurofins) gpcrMAX PathHunter β-arrestin panel
T10 sequence (Q9Y5N1 whole entry): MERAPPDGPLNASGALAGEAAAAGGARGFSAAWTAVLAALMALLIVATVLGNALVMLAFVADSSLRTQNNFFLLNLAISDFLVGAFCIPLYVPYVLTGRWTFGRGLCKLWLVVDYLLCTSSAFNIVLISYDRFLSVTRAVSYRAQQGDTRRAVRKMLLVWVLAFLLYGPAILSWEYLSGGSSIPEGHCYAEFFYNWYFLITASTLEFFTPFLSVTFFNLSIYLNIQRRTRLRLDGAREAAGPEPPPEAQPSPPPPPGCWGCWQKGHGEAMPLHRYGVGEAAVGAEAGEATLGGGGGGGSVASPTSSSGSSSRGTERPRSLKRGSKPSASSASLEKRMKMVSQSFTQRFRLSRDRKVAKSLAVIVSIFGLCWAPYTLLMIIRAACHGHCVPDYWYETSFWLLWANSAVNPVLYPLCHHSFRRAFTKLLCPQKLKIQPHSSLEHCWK
Summary of the method: as §1

HTR5A = molecular target: T11, HTR5A (Homo sapiens, UniProt P47898); experiment: PathHunter β-arrestin GpcrMAX assay
T11 construct: purchased DiscoveRx (Eurofins) gpcrMAX PathHunter β-arrestin panel
Summary of the method: as §1

CALCR = CALCR (Homo sapiens, UniProt P30988); experiment: PathHunter β-arrestin GpcrMAX assay
Summary of the method: as §1

GCGR = molecular target: T12, GCGR (Homo sapiens, UniProt P47871); experiment: PathHunter β-arrestin GpcrMAX assay
T12 construct: purchased DiscoveRx (Eurofins) gpcrMAX PathHunter β-arrestin panel
Summary of the method: as §1

MLNR = molecular target: T13, MLNR (Homo sapiens, UniProt O43193); experiment: PathHunter β-arrestin GpcrMAX assay
T13 construct: purchased DiscoveRx (Eurofins) gpcrMAX PathHunter β-arrestin panel
Summary of the method: as §1

CCR6 = molecular target: T14, CCR6 (Homo sapiens, UniProt P51684); experiment: PathHunter β-arrestin GpcrMAX assay
T14 construct: purchased DiscoveRx (Eurofins) gpcrMAX PathHunter β-arrestin panel
T14 sequence (P51684 whole entry): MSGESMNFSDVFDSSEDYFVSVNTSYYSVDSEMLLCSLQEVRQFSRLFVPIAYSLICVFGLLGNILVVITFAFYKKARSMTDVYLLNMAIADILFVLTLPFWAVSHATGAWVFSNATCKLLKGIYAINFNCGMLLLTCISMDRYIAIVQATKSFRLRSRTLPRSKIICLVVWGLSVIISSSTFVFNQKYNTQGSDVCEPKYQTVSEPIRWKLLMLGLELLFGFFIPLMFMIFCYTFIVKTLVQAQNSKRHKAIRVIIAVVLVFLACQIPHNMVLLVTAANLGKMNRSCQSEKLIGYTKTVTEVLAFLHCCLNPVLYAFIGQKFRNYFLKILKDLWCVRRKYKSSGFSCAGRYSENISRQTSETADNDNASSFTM
Summary of the method: as §1

CALCRL-RAMP2 = CALCRL-RAMP2 (Homo sapiens, UniProt O60895+Q16602); experiment: PathHunter β-arrestin GpcrMAX assay
Summary of the method: as §1

SSTR5 = molecular target: T15, SSTR5 (Homo sapiens, UniProt P35346); experiment: PathHunter β-arrestin GpcrMAX assay
T15 construct: purchased DiscoveRx (Eurofins) gpcrMAX PathHunter β-arrestin panel
Summary of the method: as §1

CALCRL-RAMP3 = CALCRL-RAMP3 (Homo sapiens, UniProt O60896+Q16602); experiment: PathHunter β-arrestin GpcrMAX assay
Summary of the method: as §1

CALCR-RAMP2 = CALCR-RAMP2 (Homo sapiens, UniProt O60895+P30988); experiment: PathHunter β-arrestin GpcrMAX assay
Summary of the method: as §1

EBI2 = molecular target: T16, EBI2 (Homo sapiens, UniProt P32249); experiment: PathHunter β-arrestin GpcrMAX assay
T16 construct: purchased DiscoveRx (Eurofins) gpcrMAX PathHunter β-arrestin panel
Summary of the method: as §1

CXCR7 = molecular target: T17, CXCR7 (Homo sapiens, UniProt P25106); experiment: PathHunter β-arrestin GpcrMAX assay
T17 construct: purchased DiscoveRx (Eurofins) gpcrMAX PathHunter β-arrestin panel
T17 sequence (P25106 whole entry): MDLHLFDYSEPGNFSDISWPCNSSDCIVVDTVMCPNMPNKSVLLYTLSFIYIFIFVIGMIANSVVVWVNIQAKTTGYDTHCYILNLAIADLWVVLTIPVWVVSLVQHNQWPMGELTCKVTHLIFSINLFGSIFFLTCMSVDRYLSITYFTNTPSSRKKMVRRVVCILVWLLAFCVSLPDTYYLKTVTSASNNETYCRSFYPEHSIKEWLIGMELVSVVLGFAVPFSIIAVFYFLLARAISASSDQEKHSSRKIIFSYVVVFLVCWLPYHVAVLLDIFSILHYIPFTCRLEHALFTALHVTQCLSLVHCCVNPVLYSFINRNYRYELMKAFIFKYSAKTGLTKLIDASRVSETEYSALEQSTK
Summary of the method: as §1

NMBR = molecular target: T18, NMBR (Homo sapiens, UniProt P28336); experiment: PathHunter β-arrestin GpcrMAX assay
T18 construct: purchased DiscoveRx (Eurofins) gpcrMAX PathHunter β-arrestin panel
T18 sequence (P28336 whole entry): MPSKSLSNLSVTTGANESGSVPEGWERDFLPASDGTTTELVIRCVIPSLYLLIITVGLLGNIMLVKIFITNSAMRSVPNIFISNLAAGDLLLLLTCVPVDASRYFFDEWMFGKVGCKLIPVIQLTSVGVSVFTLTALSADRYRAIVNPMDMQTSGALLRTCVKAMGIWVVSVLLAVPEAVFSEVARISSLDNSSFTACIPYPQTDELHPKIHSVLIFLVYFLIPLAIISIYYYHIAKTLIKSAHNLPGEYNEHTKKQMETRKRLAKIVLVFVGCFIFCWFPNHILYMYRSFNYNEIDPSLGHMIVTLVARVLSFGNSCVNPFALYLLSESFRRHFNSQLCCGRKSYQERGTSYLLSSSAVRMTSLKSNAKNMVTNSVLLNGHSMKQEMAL
Summary of the method: as §1

MC5R = molecular target: T19, MC5R (Homo sapiens, UniProt P33032); experiment: PathHunter β-arrestin GpcrMAX assay
T19 construct: purchased DiscoveRx (Eurofins) gpcrMAX PathHunter β-arrestin panel
T19 sequence (P33032 whole entry): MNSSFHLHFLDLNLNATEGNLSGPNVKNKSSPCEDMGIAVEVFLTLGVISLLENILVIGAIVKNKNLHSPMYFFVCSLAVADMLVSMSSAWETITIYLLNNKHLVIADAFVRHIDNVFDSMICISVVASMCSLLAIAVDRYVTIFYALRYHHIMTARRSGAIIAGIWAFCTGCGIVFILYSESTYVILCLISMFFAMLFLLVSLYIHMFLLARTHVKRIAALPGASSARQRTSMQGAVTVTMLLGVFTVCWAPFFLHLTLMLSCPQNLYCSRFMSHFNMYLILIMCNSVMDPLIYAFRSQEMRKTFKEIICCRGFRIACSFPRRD
Summary of the method: as §1

SSTR3 = molecular target: T20, SSTR3 (Homo sapiens, UniProt P32745); experiment: PathHunter β-arrestin GpcrMAX assay
T20 construct: purchased DiscoveRx (Eurofins) gpcrMAX PathHunter β-arrestin panel
Summary of the method: as §1

EDNRA = molecular target: T21, EDNRA (Homo sapiens, UniProt P25101); experiment: PathHunter β-arrestin GpcrMAX assay
T21 construct: purchased DiscoveRx (Eurofins) gpcrMAX PathHunter β-arrestin panel
Summary of the method: as §1

ADRA2C = molecular target: T22, ADRA2C (Homo sapiens, UniProt P18825); experiment: PathHunter β-arrestin GpcrMAX assay
T22 construct: purchased DiscoveRx (Eurofins) gpcrMAX PathHunter β-arrestin panel
T22 sequence (P18825 whole entry): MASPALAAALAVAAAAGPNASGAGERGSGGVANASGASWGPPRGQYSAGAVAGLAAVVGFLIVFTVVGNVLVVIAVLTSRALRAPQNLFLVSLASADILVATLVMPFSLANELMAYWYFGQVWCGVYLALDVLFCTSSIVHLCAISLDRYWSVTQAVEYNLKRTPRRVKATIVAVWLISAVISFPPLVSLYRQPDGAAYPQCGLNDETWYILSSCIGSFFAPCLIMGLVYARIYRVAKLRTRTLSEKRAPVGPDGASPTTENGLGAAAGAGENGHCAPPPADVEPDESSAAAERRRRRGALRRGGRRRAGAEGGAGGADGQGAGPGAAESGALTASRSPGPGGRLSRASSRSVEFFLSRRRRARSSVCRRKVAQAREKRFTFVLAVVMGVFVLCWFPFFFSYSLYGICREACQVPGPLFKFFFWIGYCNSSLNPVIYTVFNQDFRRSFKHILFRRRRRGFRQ
Summary of the method: as §1

PPYR1 = molecular target: T23, PPYR1 (Homo sapiens, UniProt P50391); experiment: PathHunter β-arrestin GpcrMAX assay
T23 construct: purchased DiscoveRx (Eurofins) gpcrMAX PathHunter β-arrestin panel
T23 sequence (P50391 whole entry): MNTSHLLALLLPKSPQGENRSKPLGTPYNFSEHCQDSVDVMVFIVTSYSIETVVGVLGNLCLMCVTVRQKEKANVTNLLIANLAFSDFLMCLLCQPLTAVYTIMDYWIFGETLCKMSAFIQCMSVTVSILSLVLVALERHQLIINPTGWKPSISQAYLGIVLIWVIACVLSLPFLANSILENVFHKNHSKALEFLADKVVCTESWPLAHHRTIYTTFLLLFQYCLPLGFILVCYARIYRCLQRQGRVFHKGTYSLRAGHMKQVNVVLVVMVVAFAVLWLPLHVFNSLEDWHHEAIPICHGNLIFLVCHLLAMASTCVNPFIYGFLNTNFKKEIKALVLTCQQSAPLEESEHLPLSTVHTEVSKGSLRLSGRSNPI
Summary of the method: as §1

C5aR1 = C5aR1 (Homo sapiens, UniProt P21730); experiment: PathHunter β-arrestin GpcrMAX assay
Summary of the method: as §1

CCR4 = molecular target: T24, CCR4 (Homo sapiens, UniProt P51679); experiment: PathHunter β-arrestin GpcrMAX assay
T24 construct: purchased DiscoveRx (Eurofins) gpcrMAX PathHunter β-arrestin panel
Summary of the method: as §1

CCKAR = molecular target: T25, CCKAR (Homo sapiens, UniProt P32238); experiment: PathHunter β-arrestin GpcrMAX assay
T25 construct: purchased DiscoveRx (Eurofins) gpcrMAX PathHunter β-arrestin panel
Summary of the method: as §1

PTGER4 = molecular target: T26, PTGER4 (Homo sapiens, UniProt P35408); experiment: PathHunter β-arrestin GpcrMAX assay
T26 construct: purchased DiscoveRx (Eurofins) gpcrMAX PathHunter β-arrestin panel
T26 sequence (P35408 whole entry): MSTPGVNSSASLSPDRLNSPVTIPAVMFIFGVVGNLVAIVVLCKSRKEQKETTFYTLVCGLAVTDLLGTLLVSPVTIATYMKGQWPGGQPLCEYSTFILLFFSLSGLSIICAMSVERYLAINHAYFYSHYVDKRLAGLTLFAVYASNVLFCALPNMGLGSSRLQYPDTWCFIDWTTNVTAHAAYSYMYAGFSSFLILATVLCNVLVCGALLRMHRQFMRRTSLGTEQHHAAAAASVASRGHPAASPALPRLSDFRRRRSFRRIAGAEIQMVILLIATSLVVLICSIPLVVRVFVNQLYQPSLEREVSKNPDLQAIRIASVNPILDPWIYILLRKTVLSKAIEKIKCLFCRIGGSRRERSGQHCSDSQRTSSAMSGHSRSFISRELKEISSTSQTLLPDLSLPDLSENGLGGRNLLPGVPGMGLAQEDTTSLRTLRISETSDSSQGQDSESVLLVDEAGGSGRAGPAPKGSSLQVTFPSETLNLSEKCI
Summary of the method: as §1

T1 sequence (P21554 whole entry): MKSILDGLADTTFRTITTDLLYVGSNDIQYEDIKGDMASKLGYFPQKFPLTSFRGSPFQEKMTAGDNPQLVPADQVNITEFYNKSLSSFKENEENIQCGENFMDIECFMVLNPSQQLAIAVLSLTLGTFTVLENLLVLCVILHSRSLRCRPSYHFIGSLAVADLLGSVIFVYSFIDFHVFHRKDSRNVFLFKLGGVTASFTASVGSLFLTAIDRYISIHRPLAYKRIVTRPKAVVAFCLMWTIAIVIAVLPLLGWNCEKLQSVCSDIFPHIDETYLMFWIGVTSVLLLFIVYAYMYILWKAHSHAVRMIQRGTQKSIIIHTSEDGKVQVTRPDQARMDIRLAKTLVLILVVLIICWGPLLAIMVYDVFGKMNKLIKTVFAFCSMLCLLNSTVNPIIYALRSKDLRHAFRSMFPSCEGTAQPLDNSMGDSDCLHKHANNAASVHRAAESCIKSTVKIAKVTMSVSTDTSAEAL

mode of activity in CNR1 cAMP functional assay (CNR1; agonist and antagonist mode): antagonist/inverse agonist
IC50 (CNR1; antagonist mode, EC80 of CP55940, forskolin, CHO-K1 cells, read-out: IC50, inhibition of CNR1-agonist-induced cAMP downregulation): 21 µM
inhibition at 20 µM (P2RY6): 1.2%
inhibition at 20 µM (HTR1B): 33.9%
inhibition at 20 µM (DRD1): 18.6%
inhibition at 20 µM (LHCGR): 56.3%
inhibition at 20 µM (PTGER3): -13%
inhibition at 20 µM (ADORA3): 1%
inhibition at 20 µM (DRD5): 2.7%
inhibition at 20 µM (MCHR2): 21.4%
inhibition at 20 µM (HRH3): 5%
inhibition at 20 µM (HTR5A): 45.6%
inhibition at 20 µM (CALCR): 14.1%
inhibition at 20 µM (GCGR): 2.2%
inhibition at 20 µM (MLNR): 53.1%
inhibition at 20 µM (CCR6): 58.2%
inhibition at 20 µM (CALCRL-RAMP2): 13.6%
inhibition at 20 µM (SSTR5): 2.4%
inhibition at 20 µM (CALCRL-RAMP3): 19.3%
inhibition at 20 µM (CALCR-RAMP2): 58.6%
inhibition at 20 µM (EBI2): 18%
inhibition at 20 µM (CXCR7): 3.6%
inhibition at 20 µM (NMBR): 39.7%
inhibition at 20 µM (MC5R): 39.8%
inhibition at 20 µM (SSTR3): 41.3%
inhibition at 20 µM (EDNRA): 30.7%
inhibition at 20 µM (ADRA2C): 25.1%
inhibition at 20 µM (PPYR1): 50.7%
inhibition at 20 µM (C5aR1): 1.4%
inhibition at 20 µM (CCR4): 58.9%
inhibition at 20 µM (CCKAR): 10.9%
inhibition at 20 µM (PTGER4): 36.5%
Structure (SMILES): CC(=O)N[C@@H](CCCC#C/C=C/Cl)CCCCCCC(Cl)Cl [Compound 4, taveuniamide F]

— publication PMC10817531, “Chlorinated Enyne Fatty Acid Amides from a Marine Cyanobacterium: Discovery of Taveuniamides L-M and Pharmacological Characterization of Taveuniamide F as a GPCR Antagonist with CNR1 Selectivity” (Marine Drugs, 2023)
